Data set [1] can be described thus: Plasma cannabinoid concentrations and pharmacokinetics during 14-day industrial hemp feeding. It is filed as in vivo, Holstein cattle. Particulars: for number of plasma samples in which cannabinoid was detected: of 288 samples from HEMP (IH) cattle; for half-life / Cmax / AUC(0-inf) / AUC(0-t) / MRT inf / Tmax: Holstein, bovine; for MRT inf: read-out: MRT0-∞; for detection in plasma: HEMP cattle, doses 0.005 mg/kg CBDVA, 0.2 mg/kg CBGA, 0.1 mg/kg THCA-A. On the procedure: Cattle in the HEMP group were individually fed 25 g IH mixed in 200 g grain placed in rubber feed pans at 07:00 daily for 14 days. The IH was fed at 25 g per animal per day to target a mean dose of CBDA of 5.5 mg/kg. Daily IH feeding was after the daily blood sample for cattle in the HEMP group.
Cattle were blood sampled at predetermined time points from the jugular or coccygeal veins using a needle and vacutainer. Whole blood was collected into tubes containing sodium heparin, EDTA, sodium citrate, and no additives. Blood samples from the HEMP cattle were obtained prior to initial IH feeding (day −1) and 8 and 12 h post-initial IH feeding; then every 12 h (prior to the next IH feeding); then (starting 12 hours after the last IH feeding) every 24 hours for 5 samples or 108 h after the last IH feeding Cattle in the CNTL group were blood sampled −24 h prior to the initial IH feeding; and on day 7, 14 and 19 post-initial IH feeding.
Plasma cannabinoid concentrations were determined using UPLC-MS methods. All solvents used such as methanol, acetonitrile, isopropanol, formic acid were LC-MS grade. Cannabinoids standards were purchased in individual solutions in methanol (Cerilliant Corporation, Round Rock, TX), including: (±)-cis-11-Nor-9-carboxy-A 9-tetrahydrocannabinol glucuronide (THC-glu), (±)-11-Hydroxy-Δ9-tetrahydrocannabinol (THC-OH), cannabidivarinic acid (CBDVA), cannabidivarin (CBDV), cannabidiol (CBD), cannabidiolic acid (CBDA), Δ9-Tetrahydrocannabinolic acid A (THCA-A), cannabigerolic acid (CBGA), cannabigerol (CBG), Δ9-tetrahydrocannabinol (9-THC), Δ8-tetrahydrocannabinol (8-THC), cannabichromene (CBC), Δ9-tetrahydrocannabivarin (THCV), cannabichromenic Acid (CBCA), cannabinol (CBN), (−)-11-nor-9-Carboxy-Δ9-tetrahydrocannabinol (THC-acid). Cannabinoid analogs used as internal standards were also purchased in solution in methanol at 100 μg/ml (Cerilliant Corporation, Round Rock, TX): (±)-cis-11-Nor-9-carboxy-Δ9-tetrahydrocannabinol glucuronide (THC-glu-d3), Cannabidiol-d3 (CBD-d3), Δ9-Tetrahydrocannabinol-d3 (9-THC-d3), (±)-11-nor-9-Carboxy-D9-tetrahydrocannabinol-d9 (THC-acid-d9), (±)-11-Hydroxy-Δ9-tetrahydrocannabinol-d3 (THC-OH-d3), Cannabichromene-do (CBC-d9). All cannabinoids standards were kept in the freezer at −20° C. On the day of analysis, plasma samples were allowed to thaw. Plasma (samples, quality controls or negative control plasma) were mixed with the internal standard mixture at 200 ng/mL (not added to the negative control sample) and acetonitrile with 0.1% formic acid to precipitate the proteins. The mixture was vortexed for 5 seconds and centrifuge for 5 minutes at 7,000 g. The supernatant was then diluted with ultra-pure […] water before clean-up. The sample was loaded on a solid phase extraction plate using positive pressure nitrogen. Each well was washed twice with 0.25 mL of a mixture of methanol-water (25:75). The compounds were eluted with two-25 μL aliquots of acetonitrile-methanol (90:10) and diluted with 50 μL of water before analysis.
Cannabinoid analysis was performed using an Acquity H UPLC and a TQ-S triple quadrupole mass spectrometer (Waters Corp., Milford, MA). The chromatographic separation was performed with a UPLC column (Eclipse Plus C18, Agilent Technologies, Santa Clara, CA) 100×2.1 mm, 1.8μ, heated at 55° C. The flow rate was set at 0.5 mL/min, the mobile phase consisted of a gradient of acetonitrile (B) and water containing 0.1% formic acid (A) as follow: 0 min: 60% B, 6.50 min: 86% B, 7.50 min-9 min: 100% B, 9.01 m in 12 min: 60% B. The total run time was 12 min. The injection volume was 5 μL. The data acquisition was performed by electrospray ionization in positive and negative mode using multiple reaction monitoring. Linear regression with a weighing factor of 1/X was used and accepted if the coefficient of correlation R^2 was >0.99. Calibration curves were linear from 0.1 to 100 ng/ml for all cannabinoids. […]

For data set [2] the following is noted: cited from earlier work.
[3] abbreviates: plasma, po, 5.5 mg/kg, geometric mean, IH fed 14 days, target dose 5.5 mg/kg CBDA, n = 8.
Setting [4] is: plasma, po, 5.5 mg/kg, median, IH fed 14 days, target dose 5.5 mg/kg CBDA, n = 8.
Setting [5] is: geometric mean, IH fed 14 days, target dose 5.5 mg/kg CBDA, n = 8.
The mark [6] stands for this setting: median, IH fed 14 days, target dose 5.5 mg/kg CBDA, n = 8.
Where [7] appears, read: plasma, initial hemp feeding period.

Several values for one entry are separate records, joined by “and”; a condition that tells them apart may be missing. Equal values may be shown once. Read-outs that look alike come from different tables or passages of the source.

With `CCCCCc1cc2c(c(O)c1C(=O)O)C=CC(C)(CCC=C(C)C)O2` (stereo not shown) [CBCA, cannabichromenic acid], in data set [1], the “number of plasma samples in which cannabinoid was detected” value is 93.
On the same count and under the same terms, then `C=C(C)[C@@H]1CCC(C)=C[C@H]1c1c(O)cc(CCCCC)cc1O` [CBD, cannabidiol, reference compound], with 159.
For orientation: Cmax means the peak of the concentration-time curve. The AUC(0-inf) is total exposure, with the tail of the curve extrapolated. A higher AUC(0-inf) goes with high exposure. Usually AUC(0-t) stands for the area under the concentration-time curve up to a stated or last time point. A low value points to low exposure. Broadly, the Tmax is the time from dosing to the highest level. As to `C=C(C)[C@@H]1CCC(C)=C[C@H]1c1c(O)cc(CCCCC)c(C(=O)O)c1O` [CBDA, cannabidiolic acid], the half-life in data set [1] (plasma, oral, 5.5 mg/kg, geometric mean, IH fed 14 days, target dose 5.5 mg/kg CBDA, n = 8, read-out: T1/2 (terminal half-life) (converted)) was 15 h. The molecule also came in with a Cmax in data set [1] (plasma, oral, 5.5 mg/kg, geometric mean, initial hemp feeding period, target dose 5.5 mg/kg CBDA, n = 8) of 22 ng/mL. Moreover, in data set [1] (setting [3]), the AUC(0-inf) turned out to be 13600 ng·h/mL, the AUC(0-t) came out at 13500 ng·h/mL and the MRT inf came out at 822 h. The half-life in data set [1] (plasma, po, 5.5 mg/kg, geometric mean, IH fed 14 days, target dose 5.5 mg/kg CBDA, n = 8, read-out: T1/2 (terminal half-life) (converted)) was 15.3 h. For the same molecule, the Tmax in data set [1] (plasma, po, 5.5 mg/kg, geometric mean, after the initial IH feeding, target dose 5.5 mg/kg CBDA, n = 8) came out at 16.7 h. In data set [1] (plasma, po, 5.5 mg/kg, geometric mean, initial hemp feeding period, target dose 5.5 mg/kg CBDA, n = 8), this molecule showed a Cmax of 22.1 ng/mL. Also, in data set [1] (setting [4]), the AUC(0-inf) was 13600 ng·h/mL, the AUC(0-t) was 13500 ng·h/mL, the highest level (Cmax) was 22.2 ng/mL and the Tmax worked out at 24 h. In addition, the MRT inf in data set [1] (setting [4]) was 772 h. The half-life in data set [1] (plasma, po, 5.5 mg/kg, median, IH fed 14 days, target dose 5.5 mg/kg CBDA, n = 8, read-out: T1/2 (converted)) was 14.8 h. Also, in data set [1] (daily IH administration, visual inspection of the data), the “time to plasma steady state concentrations” value is reported as “approximately 7 days”. Besides, in data set [1] (geometric mean / mean, 14-day feeding period, target dose 5.5 mg/kg CBDA, n = 8, 5.5 mg/kg), the “Accumulation (index/ratio)” value is 1.5 and 1.52. Moreover, in data set [1] (setting [5]), the AUC extrapolated is 0.38% and the λz worked out at 0.05 h⁻¹. In addition, in data set [1] (setting [6]), the AUC extrapolated is 0.49%, the Accumulation was found to be 1.49 and the λz was 0.05 h⁻¹. Moreover, in data set [1] (setting [7]), the “geometric mean minimum concentration” value amounted to 12.3 ng/mL and the “time of minimum concentration after the initial IH feeding” value was found to be 9.3 h. For the same molecule, in data set [2] (earlier published study), the “maximum CBDA concentration (Cmax), previously reported” value was 72.7 ng/mL and the “terminal half-life, previously published” value is 14 h. Also, the “time of peak concentrations post-exposure” value in data set [2] (single oral dosing of IH) was 12 to 24 h.
Regarding `C=C(C)[C@@H]1CCC(C)=C[C@H]1c1c(O)cc(CCC)c(C(=O)O)c1O` [CBDVA, cannabidivarinic acid], in data set [1], the detection in plasma entry is recorded as “detected in the plasma of all cattle”.
The same measure, in the same setting: then `CCCCCc1cc(O)c(C/C=C(\C)CCC=C(C)C)c(O)c1C(=O)O` [CBGA, cannabigerolic acid], with “detected in the plasma of all cattle”.
Still for that read-out and setting: then `CCCCCc1cc2c(c(O)c1C(=O)O)[C@@H]1C=C(C)CC[C@H]1C(C)(C)O2` [THCA-A, tetrahydrocannabinolic acid A], with “detected in the plasma of all cattle”.

Source of the values: patent US20240423245A1, “CANNABINOIDS FOR IMPROVEMENT OF P[…] LIVESTOCK” (Kansas State University Research Foundation, priority 2021, published 2024).
